Broadly, the Kd is the constant that tells how readily two partners part at equilibrium. Higher therefore signals weaker binding. One may read the Ki as a dissociation constant, usually derived from enzyme kinetics or from competition with a known ligand.

Experiment [1] is described as follows: Tested for dissociation constant of the compound; Value ranges from 0.1-0.3. Format: ADME.
Experiment [2] addresses T1, Cholecystokinin receptor type A (Rattus norvegicus, UniProt P30551).
T1 sequence (P30551 whole entry): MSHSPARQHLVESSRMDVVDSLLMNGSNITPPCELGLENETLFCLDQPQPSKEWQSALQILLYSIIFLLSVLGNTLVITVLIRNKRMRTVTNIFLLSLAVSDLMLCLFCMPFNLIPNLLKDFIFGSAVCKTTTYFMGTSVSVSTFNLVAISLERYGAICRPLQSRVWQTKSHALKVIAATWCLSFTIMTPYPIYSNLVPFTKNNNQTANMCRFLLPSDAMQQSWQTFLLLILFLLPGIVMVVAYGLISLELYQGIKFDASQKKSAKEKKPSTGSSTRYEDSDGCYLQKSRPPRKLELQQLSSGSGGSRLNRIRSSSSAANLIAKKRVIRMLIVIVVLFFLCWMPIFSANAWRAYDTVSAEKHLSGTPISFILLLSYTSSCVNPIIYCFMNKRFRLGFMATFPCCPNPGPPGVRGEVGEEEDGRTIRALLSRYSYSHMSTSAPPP
Kind of experiment: The compound was evaluated for the inhibition of binding of [125I]Bolton-Hunter CCK-8 to Cholecystokinin type A receptor in the rat pancreas.

Experiment [3] has as its target T2, Gastrin/cholecystokinin type B receptor (Rattus norvegicus) (UniProt P30553).
T2 sequence (whole entry): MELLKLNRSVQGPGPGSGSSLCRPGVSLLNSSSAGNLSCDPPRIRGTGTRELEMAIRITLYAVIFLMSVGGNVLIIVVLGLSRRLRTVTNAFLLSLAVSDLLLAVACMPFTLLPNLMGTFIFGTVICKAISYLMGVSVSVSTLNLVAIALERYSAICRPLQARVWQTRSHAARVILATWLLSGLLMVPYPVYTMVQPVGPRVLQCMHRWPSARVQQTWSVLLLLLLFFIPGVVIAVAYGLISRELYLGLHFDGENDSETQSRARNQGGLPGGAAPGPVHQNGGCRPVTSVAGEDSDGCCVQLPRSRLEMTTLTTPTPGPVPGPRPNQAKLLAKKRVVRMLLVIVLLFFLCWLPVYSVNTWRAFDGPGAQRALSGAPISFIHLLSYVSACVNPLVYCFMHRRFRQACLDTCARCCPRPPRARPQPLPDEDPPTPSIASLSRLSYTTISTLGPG
Description: Specific activity for Cholecystokinin type B receptor in 10e5 AR42J cells was determined for the compound. Format: cell-based. To be noted: AR-42J.

The target of experiment [4] is T3, Gastrin/cholecystokinin type B receptor (Mus musculus, UniProt P56481).
T3 sequence (P56481 whole entry): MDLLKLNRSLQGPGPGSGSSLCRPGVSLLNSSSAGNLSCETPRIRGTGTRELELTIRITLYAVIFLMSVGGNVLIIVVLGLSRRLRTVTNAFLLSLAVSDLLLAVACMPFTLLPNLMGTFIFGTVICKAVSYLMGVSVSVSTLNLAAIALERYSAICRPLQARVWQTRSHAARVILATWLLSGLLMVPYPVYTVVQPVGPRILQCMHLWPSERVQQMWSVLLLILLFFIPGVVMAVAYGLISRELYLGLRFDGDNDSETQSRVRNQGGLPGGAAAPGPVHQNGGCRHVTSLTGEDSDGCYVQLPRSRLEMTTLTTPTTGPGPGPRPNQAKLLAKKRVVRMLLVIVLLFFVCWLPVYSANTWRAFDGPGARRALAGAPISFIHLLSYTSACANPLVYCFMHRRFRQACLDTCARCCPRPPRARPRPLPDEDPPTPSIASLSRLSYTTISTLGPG
Description: The compound was evaluated for the inhibition of binding of [3H]-PD 140376 to Cholecystokinin type B receptor in mouse cortex.

A further experiment is filed under the species Rattus norvegicus. Description: Antagonistic activity against excitations of rat ventromedial hyphalamic neurones evoked in CCK-B. Format: functional.

In experiment [1], `C[C@](Cc1c[nH]c2ccccc12)(NC(=O)OC1C2CC3CC(C2)CC1C3)C(=O)N[C@@H](CC(=O)O)Cc1ccc(N)cc1` (stereo not given in full) yielded a Kd of 0.1 nM. For the same compound, the Ki in experiment [2] came to 350 nM; in experiment [4] it was 0.2 nM. Besides, in experiment [3], the Bmax (fmol/10^5 cells) came to 31.

`CSCC[C@H](NC(=O)[C@H](Cc1c[nH]c2ccccc12)NC(=O)CCNC(=O)OC(C)(C)C)C(=O)N[C@@H](CC(=O)O)C(=O)N[C@@H](Cc1ccccc1)C(N)=O` [PENTAGASTRIN] returned a Ke in the experiment listed under Rattus norvegicus of 1.4 nM.
